Here are results for 25 compounds from patent US9975878B2, “Substituted triazine BMI-1 inhibitors” (PTC Therapeutics, Inc., priority 2013, dated 2018).

Structures are written as SMILES.

Usually EC50 stands for the concentration at which the effect is half-maximal.

The test system of the assay is Bmi-1 protein. Briefly: Sandwich ELISA Assay: Bmi-1 protein level in HT-1080 cells treated with test compounds. It is filed as cell-based. The method, then: Cell Seeding and Compound Treatment (Day 1):
HT-1080 cells were seeded at 8000 cells/well (50 μL) in 96-well tissue culture plates. After the cells became adherent (3-4 hours), 2× diluted stocks of test compounds in 50 μL DMEM containing 1% DMSO (final DMSO concentration was 0.5%) were added and the plates were incubated at 37° C. under 5% CO2 for 40-48 hours.
ELISA Plate First Antibody Preparation (Day 2):
The First Antibody (Millipore Mouse, monoclonal to mouse Bmi-1, clone F6, catalog #05-637) diluted to 2 μg/mL in PBS was added (100 μL) to each well of a Nunc MaxiSorp 96-well ELISA plate. The plate was covered with a plate seal and allowed to stand overnight.
Cell Lysate Preparation (Day 3):
Fresh Lysis buffer (1×) was prepared on the day of the assay as follows: 1 mM EDTA, 150 mM NaCl, 0.5% Triton-X 100, 10 mM NaF, 20 mM B-Glycerophosphate, 1 mM DTT (in PBS, pH 7.2-7.4) and HALT protease inhibitor cocktail (1×) (Pierce #78410).
Lysis Buffer (1×, 40 μL) was added to each well and the plate was shaken for 5-10 minutes on an orbital shaker to allow cell lysis, then diluent (1% BSA in PBS in 0.5% NP40) (100 μL) was added to each well.
A standard curve was prepared at the following Bmi-1 concentrations: 8000, 4000, 2000, 1000, 500, 250, 125 and 0 pg/mL. The Bmi-1 Recombinant Protein Standard (Novus Biologicals PCGF4 Recombinant Protein (P01), catalog # H00000648-P01) used to prepare the standard curve was stored at −80° C. On first thaw, the Recombinant Protein Standard was diluted to 10 μg/μL in Blocking Buffer (1% BSA in PBS; BSA: Fisher Scientific Catalog #1600-100). Aliquots were taken and refrozen at −80° C. The aliquots may be kept at 4° C. and reused after first thaw, but only within 1-2 weeks. The Recombinant Protein Standard contains a GST-fusion tag that appears at approximately 70 Kda on Western Blot.
The prepared ELISA plate was washed 3× with Wash Buffer (0.05% Tween-20 in PBS). The final wash was removed from the plate and the plate was blotted dry. Blocking Buffer (300 μL) (1% BSA in PBS) was added to each well. The plate was covered with a plate seal and incubated at room temperature for 1 hour. The blocked plate was washed 3× with Wash Buffer, then the final wash was removed and the plate was blotted dry. The previously prepared samples and standards were added (100 μL/well) and the plate was covered with a plate seal and incubated at 4° C. overnight.
The prepared ELISA plate was removed from incubation and allowed to stand at room temperature for 30 minutes, then washed and blotted dry. The Second Antibody (Cell Signaling Rabbit anti-Bmi-1, Cat# 2830) diluted to 1:600 in Blocking Buffer was added (100 μL) to each well, except as needed for background control wells. The plate was covered with a plate seal and incubated for 1.5 hrs at room temperature.
The ELISA plate was washed and blotted dry as previously described. The Third Antibody (Cell Signaling HRP conjugated anti-rabbit IgG (CellSignaling, Cat#:7074) diluted to 1:300 in Blocking Buffer was added (100 μL) to each well, except as needed for background control wells. The plate was incubated for 1 hr at room temperature.
The plate was washed and blotted dry, then a previously prepared TMB substrate (TMB substrate kit, Pierce catalog #34021) (prepared by mixing kit reagents 1:1) (100 μL) was added per well. The plate was incubated for 20-30 minutes at room temperature in the dark, then Stop Solution (2 M sulfuric acid in water) (50 μL) was added per well. The plates were read at OD450 (experimental) and OD570 (reference).
(In general: ELISA stands for enzyme-linked immunosorbent assay.)
Take `Cc1nc2ccc(F)cc2n1-c1nc(N)nc(Nc2ccc(OC(F)F)cc2)n1` [Cpd 28, N-[4-(difluoromethoxy)phenyl]-6-(6-fluoro-2-methyl-1H-benzimidazol-1-yl)-1,3,5-triazine-2,4-diamine]: the concentration giving a half-maximal response (EC50) was 10 to 100 nM.
As for `Cc1nc2ccc(F)cc2n1-c1nc(N)nc(Nc2ccc(OC(F)F)c(F)c2)n1` [Cpd 29, N-[4-(difluoromethoxy)-3-fluorophenyl]-6-(6-fluoro-2-methyl-1H-benzimidazol-1-yl)-1,3,5-triazine-2,4-diamine], the figure is 10 to 100 nM; as for `CCc1nc2ccccc2n1-c1nc(N)nc(Nc2ccc(C(F)(F)F)cc2)n1` [Cpd 30, 6-(2-ethyl-1H-benzimidazol-1-yl)-N-[4-(trifluoromethyl)phenyl]-1,3,5-triazine-2,4-diamine], 10 to 100 nM.
As for `CCc1nc2ccccc2n1-c1nc(N)nc(Nc2ccc(OC(F)F)cc2)n1` [Cpd 31, N-[4-(difluoromethoxy)phenyl]-6-(2-ethyl-1H-benzimidazol-1-yl)-1,3,5-triazine-2,4-diamine], the EC50 fell in the range of 10 to 100 nM.
With `Cc1nc2ncc(Br)cc2n1-c1nc(N)nc(Nc2ccc(C(F)(F)F)cc2)n1` [Cpd 32, 6-(6-bromo-2-methyl-1H-imidazo[4,5-b]pyridin-1-yl)-N-[4-(trifluoromethyl)phenyl]-1,3,5-triazine-2,4-diamine] the figure was 10 to 100 nM.
In the case of `Cc1nc2ncc(Cl)cc2n1-c1nc(N)nc(Nc2ccc(C(F)(F)F)cc2)n1` [Cpd 33, 6-(6-chloro-2-methyl-1H-imidazo[4,5-b]pyridin-1-yl)-N-[4-(trifluoromethyl)phenyl]-1,3,5-triazine-2,4-diamine], the concentration for a half-maximal effect (EC50) fell in the range of 10 to 100 nM.
With `Cc1nc2ncc(Br)cc2n1-c1nc(NCCO)nc(Nc2ccc(C(F)(F)F)cc2)n1` [Cpd 34, 2-{[4-(6-bromo-2-methyl-1H-imidazo[4,5-b]pyridin-1-yl)-6-{[4-(trifluoromethyl)phenyl]amino}-1,3,5-triazin-2-yl]amino}ethanol] the figure was 100 to 3000 nM; with `Cc1nc2ncc(Cl)cc2n1-c1nc(NCCO)nc(Nc2ccc(C(F)(F)F)cc2)n1` [Cpd 35, 2-{[4-(6-chloro-2-methyl-1H-imidazo[4,5-b]pyridin-1-yl)-6-{[4-(trifluoromethyl)phenyl]amino}-1,3,5-triazin-2-yl]amino}ethanol], 100 to 3000 nM; with `Nc1nc(Nc2ccc(C(F)(F)F)cc2)nc(-n2c(C3CC3)nc3ncc(F)cc32)n1` [Cpd 36, 6-(2-cyclopropyl-6-fluoro-1H-imidazo[4,5-b]pyridin-1-yl)-N-[4-(trifluoromethyl)phenyl]-1,3,5-triazine-2,4-diamine], 100 to 3000 nM.
`CCc1nc2ccccc2n1-c1nc(N)nc(Nc2ccc(OC(F)F)c(F)c2)n1` [Cpd 37, N-[4-(difluoromethoxy)-3-fluorophenyl]-6-(2-ethyl-1H-benzimidazol-1-yl)-1,3,5-triazine-2,4-diamine] gave an EC50 of 10 to 100 nM.
As for `Cc1nc2ncc(Br)cc2n1-c1nc(N)nc(Nc2ccc(OC(F)F)cc2)n1` [Cpd 38, 6-(6-bromo-2-methyl-1H-imidazo[4,5-b]pyridin-1-yl)-N-[4-(difluoromethoxy)phenyl]-1,3,5-triazine-2,4-diamine], the EC50 is 10 to 100 nM.
Compound `Cc1nc2ncc(Br)cc2n1-c1nc(N)nc(Nc2ccc(OC(F)F)c(F)c2)n1` [Cpd 39, 6-(6-bromo-2-methyl-1H-imidazo[4,5-b]pyridin-1-yl)-N-[4-(difluoromethoxy)-3-fluorophenyl]-1,3,5-triazine-2,4-diamine] displayed an EC50 of 10 to 100 nM.
With `Cc1nc2ncc(Cl)cc2n1-c1nc(N)nc(Nc2ccc(OC(F)F)cc2)n1` [Cpd 40, 6-(6-chloro-2-methyl-1H-imidazo[4,5-b]pyridin-1-yl)-N-[4-(difluoromethoxy)phenyl]-1,3,5-triazine-2,4-diamine] the figure was 10 to 100 nM; with `Cc1nc2ncc(Cl)cc2n1-c1nc(N)nc(Nc2ccc(OC(F)F)c(F)c2)n1` [Cpd 41, 6-(6-chloro-2-methyl-1H-imidazo[4,5-b]pyridin-1-yl)-N-[4-(difluoromethoxy)-3-fluorophenyl]-1,3,5-triazine-2,4-diamine], 10 to 100 nM.
Take `Nc1nc(Nc2ccc(C(F)(F)F)cc2)nc(-n2c(C3CC3)nc3ccccc32)n1` [Cpd 42, 6-(2-cyclopropyl-1H-benzimidazol-1-yl)-N-[4-(trifluoromethyl)phenyl]-1,3,5-triazine-2,4-diamine]: the EC50 is 10 to 100 nM.
`Nc1nc(Nc2ccc(OC(F)F)cc2)nc(-n2c(C3CC3)nc3ccccc32)n1` [Cpd 43, 6-(2-cyclopropyl-1H-benzimidazol-1-yl)-N-[4-(difluoromethoxy)phenyl]-1,3,5-triazine-2,4-diamine]: the EC50 was 10 to 100 nM.
`Nc1nc(Nc2ccc(OC(F)F)c(F)c2)nc(-n2c(C3CC3)nc3ccccc32)n1` [Cpd 44, 6-(2-cyclopropyl-1H-benzimidazol-1-yl)-N-[4-(difluoromethoxy)-3-fluorophenyl]-1,3,5-triazine-2,4-diamine] registered a concentration giving a half-maximal response (EC50) of 10 to 100 nM.
As for `CCc1nc2c(F)cc(F)cc2n1-c1nc(N)nc(Nc2ccc(C(F)(F)F)cc2)n1` [Cpd 45, 6-(2-ethyl-4,6-difluoro-1H-benzimidazol-1-yl)-N-[4-(trifluoromethyl)phenyl]-1,3,5-triazine-2,4-diamine], the figure is 10 to 100 nM; as for `Cc1nc2c(F)cc(F)cc2n1-c1nc(N)nc(Nc2ccc(C(F)(F)F)cc2)n1` [Cpd 46, 6-(4,6-difluoro-2-methyl-1H-benzimidazol-1-yl)-N-[4-(trifluoromethyl)phenyl]-1,3,5-triazine-2,4-diamine], 100 to 3000 nM; as for `Cc1nc2c(F)cc(F)cc2n1-c1nc(N)nc(Nc2ccc(OC(F)F)cc2)n1` [Cpd 47, N-[4-(difluoromethoxy)phenyl]-6-(4,6-difluoro-2-methyl-1H-benzimidazol-1-yl)-1,3,5-triazine-2,4-diamine], 10 to 100 nM.
On to `Cc1nc2c(F)cc(F)cc2n1-c1nc(N)nc(Nc2ccc(OC(F)F)c(F)c2)n1` [Cpd 48, N-[4-(difluoromethoxy)-3-fluorophenyl]-6-(4,6-difluoro-2-methyl-1H-benzimidazol-1-yl)-1,3,5-triazine-2,4-diamine], for which the EC50 was 10 to 100 nM.
With `CCc1nc2c(F)cc(F)cc2n1-c1nc(N)nc(Nc2ccc(OC(F)F)cc2)n1` [Cpd 49, N-[4-(difluoromethoxy)phenyl]-6-(2-ethyl-4,6-difluoro-1H-benzimidazol-1-yl)-1,3,5-triazine-2,4-diamine] the figure was 10 to 100 nM.
`CCc1nc2c(F)cc(F)cc2n1-c1nc(N)nc(Nc2ccc(OC(F)F)c(F)c2)n1` [Cpd 50, N-[4-(difluoromethoxy)-3-fluorophenyl]-6-(2-ethyl-4,6-difluoro-1H-benzimidazol-1-yl)-1,3,5-triazine-2,4-diamine] yielded a concentration for a half-maximal effect (EC50) of 10 to 100 nM.
With `Cc1nc2ccccc2n1-c1nc(N)nc(Nc2ccc(C(F)(F)F)nc2)n1` [Cpd 51, 6-(2-methyl-1H-benzimidazol-1-yl)-N-[6-(trifluoromethyl)pyridin-3-yl]-1,3,5-triazine-2,4-diamine] the figure was 10 to 100 nM.
The compound `Cc1nc2cc(F)ccc2n1-c1nc(N)nc(Nc2ccc(C(F)(F)F)nc2)n1` [Cpd 52, 6-(5-fluoro-2-methyl-1H-benzimidazol-1-yl)-N-[6-(trifluoromethyl)pyridin-3-yl]-1,3,5-triazine-2,4-diamine] came in with an EC50 of 100 to 3000 nM.
